Measurements published in patent US20070010438A1, “Tumor treatment using beta-sheet peptides and radiotherapy” (priority 2005, published 2007).

Tests used:
[1] = test system: intercellular adhesion molecule-1 (ICAM-1); test: ICAM-1 expression on bFGF-treated EC (flow cytometry, Northern blot); format: cell-based, human; details: for bFGF mediated downregulation of ICAM-1: 100 μg/ml added simultaneously with 10 ng/ml bFGF, 3 days
Procedure: In a first series of experiments, PF4 and βpep peptides were tested for their ability to prevent bFGF (fibroblast growth factor) mediated downregulation of ICAM-1. […] Simultaneously 100 μg/ml of each PF4, βpep-14, βpep-16, or medium was added. Mean ICAM-1 fluorescence intensity values were determined.
Since the in vivo situation of tumor-associated EC involves the low expression or even absence of ICAM-1, the next set of experiments aimed to study the ability to re-induce ICAM-1 expression after bFBF preincubation. […] In these experiments, HUVEC were pretreated for 3 days with bFGF, subsequently PF4 was added for 3 days and, where indicated in the last 16 hours of culture 4 ng/ml TNF(X was added. Human umbilical vein derived endothelial cells (HUVEC) were harvested from normal human umbilical cords by perfusion with 0.125% trypsin/EDTA. Cells were cultured in fibronectin (FN) coated tissue culture flasks in culture medium (RPMI-1640 with 20% human serum (HS), supplemented with 2 mM glutamine and 100 U/ml penicillin and 0.1 mg/ml streptomycin). Immunofluorescence using indirect PE-conjugated reagents required three separate incubations. 1×10^5 EC were fixed for 1 hour in 1% paraformaldehyde, resuspended in 20 μl appropriately diluted Mab and incubated for 1 hour on ice. Subsequently, cells were washed two times in PBS/BSA (0.1%) and incubated for another 30 minutes with biotinylated rabbit-anti-mouse Ig (Dako, Glostrup, Denmark). After another 2 washings, cells were incubated with streptavidin-phycoerythrin conjugate (Dako). Stained cells were analyzed on a FACScan flowcytometer. Data analysis was performed using PCLysys software (Becton Dickinson, Mountain View, Calif.). Statistical significance of observed differences was determined using the Student's t-test.
The anergy of EC to stimulation with inflammatory cytokines was the subject of additional experiments. For these experiments, HUVEC (human vascular endothelial cells) were pretreated with 10 ng/ml bFGF for 3 days. Subsequently, cells are subcultured for 3 days with […] in the presence of PF4. For the last 16 hours of the culture 4 ng/ml TNF-α was added to induce upregulation of ICAM-1. […] The regulation of ICAM-1 at the protein level was confirmed in Northern blot analysis for detection of ICAM-1 message. In these experiments, HUVEC were cultured for 3 days with bFGF and treated for the last 4 and 24 hours with PF4 (100 μg/ml). TNF-α was added 2 hours before isolation of RNA. RNA from a subconfluent EC cultures (75 cm^2 Petri-dishes) incubated with bFGF for different time-points was isolated using an RNA-zol kit (Campro Scientific, Houston, Tex.). Total RNA (10 μg) for each sample was separated in a 0.8% formaldehyde-denaturing gel, transferred to nitrocellulose (Hybond N+, Amersham International, Amersham, UK) and hybridized to a ^32P-labelled 1.9 Kb c-DNA probe, containing the functional sequence of the human ICAM-1 gene (a gift from Dr. B. Seed). Membranes were washed at a high stringency in 0.2×SSC, 0.1% SDS at 50° C. for 1 hour. Filters were exposed to X-ray films (Kodak X-omat, Eastman Kodak Company, Rochester, N.Y.) using an intensifying screen at −80° C. for not less than 12 hours. Autoradiograms were subjected to scanning using a laser densitometer (Model GS670, Bio-Rad, Hercules, Calif.) and data were analysed with the Molecular Analyst PCTM software. The intensity of the major ICAM-1 mRNA transcript was normalized with respect to actin mRNA expression used as a control.

EC = EC proliferation, 3[H]thymidine incorporation assay (Table 3); format: cell-based, human
Procedure: EC proliferation was measured using a ^3[H]thymidine incorporation assay. EC were seeded in flatbottomed 96-well tissue culture plates (5000 cells/well) and grown for 3 days, in culture medium. In some cultures the proliferation of EC was enhanced by incubation with 10 ng/ml bFGF. During the last 6 hours of the assay, the culture was pulsed with 0.5 μCi [methyl-3 H]thymidine/well. Results are expressed as the arithmetic mean counts per minute (cpm) of triplicate cultures.

[2] = test system: endothelial cell (FBHEC, HUVEC)
Procedure: β-sheet peptides βpep 1-24 were tested in an endothelial cell proliferation assay using ^3H-thymidine incorporation.

HUVEC = details: PF4 100 μg/ml, bFGF 10 ng/ml
Procedure: Functional impact for the observed phenomena was provided by leukocyte/EC adhesion assays as described earlier (Griffloen et al. Cancer Res. 56, 1111-1117 (1996)). […] PHA-activated peripheral blood T lymphocyte were adhered for 1 hour at 37° C. to TNF-α (4 ng/ml), bFGF (10 ng/ml) and PF4 (100 μg/ml) treated, or control (HUVEC). Non-adhering cells were removed and adhered cells were enumerated by an inverted microscope. Values of one representative experiment out of three are expressed as numbers of adhered cells per high power field. Statistical significance is determined by the Student's t-test.

SCK tumors = test: Radiosensitization test of SCK tumors, i.p. injections plus 10 Gy on days 0 and 1
Procedure: On days 0 and 1 the injections were given 2 hours prior to tumor irradiation (10 Gy each day) (Mauceri et al., Nature 394, 287-91 (1998)).
Tumor volume was determined by measuring the diameters of the tumor using metric-scale calipers (Scienceware; Pequannock, N.J.) and solving the equation to determine the volume of a spheroid: (a^2×b×Π)/6, where ‘a’ is the width and ‘b’ is the length of the tumor.
Growth delay was calculated by subtracting the average time for control tumors to grow three-fold in volume from the time required for treated tumors to increase in volume by 3-fold from the day of radiation.

[3] = second expt 2, 1 μg/ml, 10 ng/ml bFGF, medium 52808 ± 4092
[4] = second expt 2, 1 μg/ml, no bFGF, medium 6780 ± 713
[5] = second expt 2, 10 μg/ml, 10 ng/ml bFGF, medium 52808 ± 4092
[6] = second expt 2, 10 μg/ml, no bFGF, medium 6780 ± 713
[7] = second expt 2, 100 μg/ml, 10 ng/ml bFGF, medium 52808 ± 4092
[8] = second expt 2, 100 μg/ml, no bFGF, medium 6780 ± 713
[9] = first expt 2, 1 μg/ml, 10 ng/ml bFGF, medium 29079 ± 2506
[10] = first expt 2, 1 μg/ml, no bFGF, medium 14296 ± 2490
[11] = first expt 2, 10 μg/ml, 10 ng/ml bFGF, medium 29079 ± 2506
[12] = first expt 2, 10 μg/ml, no bFGF, medium 14296 ± 2490
[13] = first expt 2, 100 μg/ml, 10 ng/ml bFGF, medium 29079 ± 2506
[14] = first expt 2, 100 μg/ml, no bFGF, medium 14296 ± 2490

O=C1CCC(N2C(=O)c3ccccc3C2=O)C(=O)N1 (stereo not shown) [thalidomide, reference compound]
effect on ICAM-1 expression, other inhibitors of angiogenesis [1]: did not affect ICAM-1 expression
EC growth in vitro (EC): do not affect EC growth in vitro

ANIKLSVEMKLFKRHLKWKIIVKLNDGRELSLD [βpep-8]
cell proliferation activity (control of endothelial cell proliferation) [2]: little cell proliferation activity

Platelet Factor 4 [PF4]
bFGF mediated downregulation of ICAM-1 [1]: did not result in the loss of ICAM-1 expression
expression of ICAM-1 ([1]; 100 μg/ml alone): enhanced the expression of ICAM-1
re-induction of ICAM-1 expression after bFGF preincubation ([1]; HUVEC pretreated 3 days with bFGF, then 100 μg/ml for 3 days in the presence of bFGF): reinduction of ICAM-1
decreased inflammatory response (TNF-α induced ICAM-1) of angiogenic stimulated EC ([1]; bFGF-pretreated HUVEC, 4 ng/ml TNF-α for the last 16 hours): overcome
bFGF mediated inhibition of leukocyte adhesion to cultured HUVEC (HUVEC): completely abolished
EC proliferation, (3H)-thymidine incorporation (EC; expt 1, 1 μg/ml, 10 ng/ml bFGF, medium 28815 ± 1007): 28782 ± 815 cpm
EC proliferation, (3H)-thymidine incorporation (EC; expt 1, 1 μg/ml, no bFGF, medium 4044 ± 206): 4656 ± 456 cpm
EC proliferation, (3H)-thymidine incorporation (EC; expt 1, 10 μg/ml, 10 ng/ml bFGF, medium 28815 ± 1007): 23868 ± 402 cpm
EC proliferation, (3H)-thymidine incorporation (EC; expt 1, 10 μg/ml, no bFGF, medium 4044 ± 206): 4066 ± 351 cpm
EC proliferation, (3H)-thymidine incorporation (EC; expt 1, 100 μg/ml, 10 ng/ml bFGF, medium 28815 ± 1007): 4655 ± 421 cpm
EC proliferation, (3H)-thymidine incorporation (EC; expt 1, 100 μg/ml, no bFGF, medium 4044 ± 206): 1651 ± 172 cpm
EC proliferation, (3H)-thymidine incorporation (EC; [3]): 43524 ± 5318 cpm
EC proliferation, (3H)-thymidine incorporation (EC; [4]): 6171 ± 1227 cpm
EC proliferation, (3H)-thymidine incorporation (EC; [5]): 8337 ± 704 cpm
EC proliferation, (3H)-thymidine incorporation (EC; [6]): 3547 ± 317 cpm
EC proliferation, (3H)-thymidine incorporation (EC; [7]): 1654 ± 375 cpm
EC proliferation, (3H)-thymidine incorporation (EC; [8]): 947 ± 170 cpm

SIQDLNVSMKLFRKQAKWKIIAKLNDGRELSLD [βpep-16]
bFGF mediated downregulation of ICAM-1 [1]: complete block of bFGF-mediated downregulation
angiostatic as determined by EC proliferation in vitro (EC): angiostatic
EC proliferation, (3H)-thymidine incorporation (EC; [9]): 35447 ± 2621 cpm
EC proliferation, (3H)-thymidine incorporation (EC; [10]): 15039 ± 2020 cpm
EC proliferation, (3H)-thymidine incorporation (EC; [11]): 33663 ± 2572 cpm
EC proliferation, (3H)-thymidine incorporation (EC; [12]): 11881 ± 2545 cpm
EC proliferation, (3H)-thymidine incorporation (EC; [13]): 7852 ± 875 cpm
EC proliferation, (3H)-thymidine incorporation (EC; [14]): 4929 ± 749 cpm
EC proliferation, (3H)-thymidine incorporation (EC; [3]): 47727 ± 447 cpm
EC proliferation, (3H)-thymidine incorporation (EC; [4]): 7450 ± 737 cpm
EC proliferation, (3H)-thymidine incorporation (EC; [5]): 44919 ± 2081 cpm
EC proliferation, (3H)-thymidine incorporation (EC; [6]): 6148 ± 1370 cpm
EC proliferation, (3H)-thymidine incorporation (EC; [7]): 27071 ± 3277 cpm
EC proliferation, (3H)-thymidine incorporation (EC; [8]): 2669 ± 370 cpm

SIQDLNVSMKLFRKQAKWKLIVKLNDGRELSLD [βpep-14]
bFGF mediated downregulation of ICAM-1 [1]: complete block of bFGF-mediated downregulation
angiostatic as determined by EC proliferation in vitro (EC): angiostatic
EC proliferation, (3H)-thymidine incorporation (EC; [9]): 28695 ± 1062 cpm
EC proliferation, (3H)-thymidine incorporation (EC; [10]): 14184 ± 1775 cpm
EC proliferation, (3H)-thymidine incorporation (EC; [11]): 29530 ± 1608 cpm
EC proliferation, (3H)-thymidine incorporation (EC; [12]): 9886 ± 2114 cpm
EC proliferation, (3H)-thymidine incorporation (EC; [13]): 6585 ± 132 cpm
EC proliferation, (3H)-thymidine incorporation (EC; [14]): 3774 ± 299 cpm
EC proliferation, (3H)-thymidine incorporation (EC; [3]): 48443 ± 2700 cpm
EC proliferation, (3H)-thymidine incorporation (EC; [4]): 7214 ± 1668 cpm
EC proliferation, (3H)-thymidine incorporation (EC; [5]): 52126 ± 1258 cpm
EC proliferation, (3H)-thymidine incorporation (EC; [6]): 6074 ± 899 cpm
EC proliferation, (3H)-thymidine incorporation (EC; [7]): 7663 ± 715 cpm
EC proliferation, (3H)-thymidine incorporation (EC; [8]): 1062 ± 325 cpm

SIQFLKVSLNLDRKQAKWKIIVKLNDGRELSLD [βpep-24]
cell proliferation activity (control of endothelial cell proliferation) [2]: very good at controlling cell proliferation

angiostatin
complete responses (SCK tumors; angiostatin 25 or 50 mg/kg i.p. combined with 10 Gy days 0 and 1): nor did it induce any complete responses
delay in tumor growth (SCK tumors; angiostatin 25 or 50 mg/kg i.p. days -1, 0, 1 combined with 10 Gy days 0 and 1): did not result in any significant delay in tumor growth

interferon-γ inducible protein-10 [IP-10]
effect on ICAM-1 expression, other inhibitors of angiogenesis [1]: the same results
EC proliferation, (3H)-thymidine incorporation (EC; expt 3, 100 μg/ml, 10 ng/ml bFGF, medium 3432 ± 232): 725 ± 95 cpm

thrombospondin-1 [TSP-1]
effect on ICAM-1 expression, other inhibitors of angiogenesis [1]: the same results
EC proliferation, (3H)-thymidine incorporation (EC; expt 4, 10 μg/ml, 10 ng/ml bFGF, medium 31954 ± 1220): 22338 ± 860 cpm
EC proliferation, (3H)-thymidine incorporation (EC; expt 4, 10 μg/ml, no bFGF, medium 18904 ± 1501): 8865 ± 639 cpm
EC proliferation, (3H)-thymidine incorporation (EC; expt 4, 25 μg/ml, 10 ng/ml bFGF, medium 31954 ± 1220): 10267 ± 797 cpm
EC proliferation, (3H)-thymidine incorporation (EC; expt 4, 25 μg/ml, no bFGF, medium 18904 ± 1501): 5565 ± 349 cpm
